Assay results taken from patent US7579152B2, “SENP1 as a marker of cancer development and target for cancer therapy” (Board of Regents, the University of Texas System, priority 2004, dated 2009).

Tests used:
PSA = PSA ELISA assay, secreted PSA of LNCaP cells; format: cell-based, human; conditions: for Increase in PSA levels as compared to control: LNCaP, R1881 20 nM, IL-6 25 ng/mL, or both, 24 hr
Protocol: (§1) LNCaP, PC-3, and DU145 cells were maintained in RPMI 1640 media containing 10% fetal bovine serum and 1% penicillin/streptomycin. The RWPE2 were maintained in Keratinocyte-Serum Free medium supplemented with 5 ng/ml human recombinant EGF and 0.05 mg/ml bovine pituitary extract. For hormone/cytokine treatment, the maintenance media was replaced with phenol red-free RPMI 1640 media containing 10% charcoal-stripped bovine serum and 1% penicillin/streptomycin.
(§2) PC-3 and LNCaP cells were grown in 24-well plates. Cells were transfected with the oligos (40 pmol/well) or siRNA plasmid (200 ng) for one (for PC-3) or three times within 12 hour intervals (for LNcaP) using lipfectamine 2000 (Invitrogen). PSA ELISA or Luciferase assays were used for analysis.
For assessment of PSA, the PSA ELISA assay kit was purchased from MP Biomedicals (Orangeburg, N.Y.) and performed according to manufacturer's instruction. Using a microtiter plate reader, the ng/mL concentration of the cell samples was calculated from the standard curve.

SENP1 [1] = test: SENP1 mRNA levels by quantitative real-time PCR in PC-3 cells after androgen/cytokine treatment; format: cell-based; conditions: 24 hr
Protocol: as §1
(§3) Cells (LNCaP and/or PC-3) were prepared for RNA isolation using the RNA-Bee Reagent (Tel-Test Inc, Friendswood, Tex.) according to manufacture's instructions with stock samples diluted to the appropriate concentrations with the DEPC-treated water.
(§4) The TaqMan Master Mix Reagents (Applied Biosystems, Branchburg, N.J.) were utilized for the quantitative real-time PCR (QRT-PCR) reaction. Primers for either SENP1 ([…]; forward: SEQ. ID. NO. 5: 5′-TTGGCCAGAGTGCAAATGG-3′ and reverse: SEQ. ID. NO. 6 5′-[…]-3′) or the housekeeping 18S rRNA were utilized. SENP1 RNA levels were calculated using the TaqMan ABI PRISM 7900 Sequence Detector System (PE Applied Biosystems).

SENP1 [2] = test: SENP1 mRNA levels by quantitative real-time PCR in LNCaP cells after androgen/cytokine treatment; format: cell-based, human; conditions: for SENP1 expression enhanced (mRNA, QRT-PCR) / Increase in SENP1 levels: R1881 20 nM; for Increase in SENP1 levels: IL-6 25 ng/mL, or both; for SENP1 levels on cytokine treatment: 25 ng/mL, 24 or 48 hr
Protocol: as §1, §3, §4

cyclin D1 promoter = test: Cyclin D1 promoter CD1 (-1745/+134) luciferase reporter assay in PC-3 cells; format: cell-based; conditions: TSA for 12 hrs at 24 hr after transfection
Protocol: At 24 hr after transfection, cells were treated different dosage TSA as indicated for 12 hrs and then luciferase activity were determined. All luciferase activity was normalized to individually determined β-gal activity. […] After 48 hr of transfection, the Luciferase activity was measured. All luciferase activity was normalized to individually determined β-gal activity. […] All luciferase activity was normalized to individually determined β-gal activity.
EGFP-SENP1 and EGFP-SENP1mutant (C603A) were prepared by standard cloning and PCR based mutagenesis. CD1 (−1745/+134), CD1 (−963/+134), CD1 (−66/+134), and, CD1 (−66/+134) mutant-driven luciferase plasmids were prepared by PCR cloning strategy (Albanese et al., 1995; Tetsu et al., 1999). […]
To further confirm the role of SENP1 in cyclin D1 transcription, we performed a cyclin D1 promoter-driven luciferase reporter assay (FIG. 16A) as described by Cheng et al, 2004. CD1 (−1745/+134), which corresponded to the original fragment of cyclin D1 5′ sequence cloned from the PRAD1 breakpoint, was transfected into PC-3 cells and its response to SENP1 was measured.

AR = test: ARE-luciferase reporter assay of AR-dependent transcription with co-transfected SENP1; format: cell-based; conditions: PC-3 cells, in the presence of bicalutamide
Protocol: as §2
Luciferase reporter gene assays were used to examine whether SENP1 could affect AR-dependent transcription. […] This effect was dependent on the presence of AR ligand, R1881. […] Even at very low levels of cotransfected DNA, SENP1 induced AR transactivation. […] As the antagonists of androgen can also bind to the AR, the inventors tested whether SENP1 could act on antagonist-bound AR. […] SENP1 and SENP1 mutant were expressed at similar levels (FIG. 9E) and SENP1 and SENP2 were also expressed similarly (FIG. 9F).

Compound: C[C@]1(O)CC[C@H]2[C@@H]3CCC4=CC(=O)CCC4=C3C=C[C@@]21C [R1881]
- Concentration of secreted PSA protein in the cultural medium (PSA; LNCaP cells, R1881): increased
- Increase in PSA levels as compared to control (PSA): 5.6 fold
- SENP1 expression on R1881 treatment (SENP1 [1]; R1881 30 nM): unaltered
- SENP1 levels with increasing R1881 concentration (SENP1 [2]; 24 hr): increasing R1881 concentration elevates SENP1 levels
- SENP1 expression enhanced (mRNA, QRT-PCR) (SENP1 [2]; 24 hr): 5 fold
- SENP1 expression enhanced (mRNA, QRT-PCR) (SENP1 [2]; 48 hr): 7 fold
- Increase in SENP1 levels (SENP1 [2]; 24 hr): ~5 fold

Compound: CC(/C=C/C(=O)NO)=C\[C@@H](C)C(=O)c1ccc(N(C)C)cc1 [TSA]
- SENP1 induction of cyclin D1 promoter activity (cyclin D1 promoter): decreased by TSA in a dose-dependent manner

Compound: CC(O)(CS(=O)(=O)c1ccc(F)cc1)C(=O)Nc1ccc(C#N)c(C(F)(F)F)c1 (centres unmarked) [bicalutamide]
- Effect of SENP1 on AR-dependent transcription with antagonist-bound AR (AR): no effect

Compound: IL-6: cytokine that promotes activation of AR-dependent transcription via MAPK and JAK/STAT pathways
- Increase in PSA levels as compared to control (PSA): 2.2 fold
- SENP1 levels on cytokine treatment (SENP1 [1]; IL-6 25 ng/mL): unchanged
- SENP1 levels on cytokine treatment (SENP1 [2]): enhanced
- Increase in SENP1 levels (SENP1 [2]; 24 hr): ~5 fold

Compound: TNF-α
- SENP1 levels on cytokine treatment (SENP1 [2]): not
